Values quoted from earlier work in patent publication US20080292591A1, “Tumor mouse models using lentiviral vectors” (The Salk Institute for Biological Studies, priority 2007, published 2008).

Tests used:
xenografts of tumors = details: animal models bearing xenografts of tumors

## Cc1cc(Nc2cc(N3CCN(C)CC3)nc(Sc3ccc(NC(=O)C4CC4)cc3)n2)n[nH]1 [VX-680]
Xenografts of tumors
  antitumor activity in animal models: robust antitumor activity
A variety of cell lines
  antiproliferative activity in vitro: broad and potent antiproliferative activity
